{"source": "paper PMC5817118", "about": "(Theranostics, 2018)", "key": {"fibrin clot": {"target": "T1, fibrin clot (Homo sapiens, UniProt P02671+P02675+P02679)", "T1 sequence (P02671 20-644 isoform P02671-2 limits assumed)": "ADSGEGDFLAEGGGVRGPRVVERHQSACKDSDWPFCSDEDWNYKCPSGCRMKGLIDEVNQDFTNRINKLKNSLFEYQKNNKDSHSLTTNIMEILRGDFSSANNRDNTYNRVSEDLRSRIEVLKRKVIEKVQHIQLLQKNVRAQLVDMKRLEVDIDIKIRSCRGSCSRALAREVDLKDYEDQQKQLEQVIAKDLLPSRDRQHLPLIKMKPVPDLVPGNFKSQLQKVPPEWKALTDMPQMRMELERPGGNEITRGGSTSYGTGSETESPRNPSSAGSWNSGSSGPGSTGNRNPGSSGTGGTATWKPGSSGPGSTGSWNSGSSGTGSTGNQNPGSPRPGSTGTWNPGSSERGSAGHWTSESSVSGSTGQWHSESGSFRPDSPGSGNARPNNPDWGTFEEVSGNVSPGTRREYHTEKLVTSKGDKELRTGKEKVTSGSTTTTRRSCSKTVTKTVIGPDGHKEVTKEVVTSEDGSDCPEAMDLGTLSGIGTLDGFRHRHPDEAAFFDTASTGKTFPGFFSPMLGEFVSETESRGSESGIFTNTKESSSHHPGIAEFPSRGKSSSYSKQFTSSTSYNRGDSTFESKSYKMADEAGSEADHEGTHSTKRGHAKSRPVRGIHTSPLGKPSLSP", "T1 sequence (P02675 45-491 limits assumed)": "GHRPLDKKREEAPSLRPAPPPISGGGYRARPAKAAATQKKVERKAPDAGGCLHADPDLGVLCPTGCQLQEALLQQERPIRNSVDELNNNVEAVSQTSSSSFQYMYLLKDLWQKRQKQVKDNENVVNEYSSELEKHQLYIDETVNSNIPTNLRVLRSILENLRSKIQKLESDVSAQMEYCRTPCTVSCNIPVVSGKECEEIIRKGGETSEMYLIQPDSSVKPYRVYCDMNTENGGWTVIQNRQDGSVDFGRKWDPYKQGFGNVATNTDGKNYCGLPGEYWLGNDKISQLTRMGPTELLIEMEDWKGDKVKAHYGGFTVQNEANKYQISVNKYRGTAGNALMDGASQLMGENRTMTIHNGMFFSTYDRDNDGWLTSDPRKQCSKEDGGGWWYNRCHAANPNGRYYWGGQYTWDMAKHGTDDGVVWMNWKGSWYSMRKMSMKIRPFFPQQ", "T1 sequence (P02679 27-437 isoform P02679-2 limits assumed)": "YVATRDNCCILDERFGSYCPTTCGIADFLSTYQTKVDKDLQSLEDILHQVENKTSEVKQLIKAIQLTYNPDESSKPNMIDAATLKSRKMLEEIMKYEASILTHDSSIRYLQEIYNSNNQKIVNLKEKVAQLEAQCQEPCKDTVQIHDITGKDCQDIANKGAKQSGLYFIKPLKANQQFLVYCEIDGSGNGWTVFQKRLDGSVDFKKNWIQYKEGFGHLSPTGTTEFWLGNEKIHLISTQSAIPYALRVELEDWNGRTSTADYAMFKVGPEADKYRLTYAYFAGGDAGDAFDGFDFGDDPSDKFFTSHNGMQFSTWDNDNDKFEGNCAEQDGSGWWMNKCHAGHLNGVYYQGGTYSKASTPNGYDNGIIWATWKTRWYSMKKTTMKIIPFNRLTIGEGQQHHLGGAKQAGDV", "experiment": "Plasma matrix interference on probe binding to fibrin clots", "details": "20 µCi probe, 0.1 M PBS diluted 50% with fresh frozen human plasma, 0.5 mL, 37 °C, 30 min, triplicate"}, "[1]": {"experiment": "Organ biodistribution in mice at 180 min", "type": "in vivo", "details": "180 min after tail vein injection, n=3/treatment"}}, "note": "“Also recorded” adds a separate entry of the source. Where a SMILES comes first, the peptide text is derived from it. Bridges are numbered along the chain shown (N, C = ends). [ ]: non-standard residue; d: D form. AEEA = NCCOCCOCC(=O)O", "data": [{"smiles": "CC[C@H](C)[C@H](NC(=O)[C@H](Cc1c[nH]c2ccccc12)NC(=O)[C@@H]1CSSC[C@H](NC(=O)[C@H](CCC(=O)O)NC(=O)[C@H](Cc2c[nH]c3ccccc23)NC(=O)[C@H](CCC(N)=O)NC(=O)COCCOCCNC(=O)[C@H](CCC(=O)O)NC(=O)[C@H](Cc2c[nH]cn2)NC(=O)[C@@H](N)Cc2c[nH]cn2)C(=O)N2CCC[C@H]2C(=O)N[C@@H](Cc2ccc(O)cc2)C(=O)NCC(=O)N[C@@H](CC(C)C)C(=O)N1)C(=O)N[C@@H](CCC(N)=O)C(=O)O", "note": "[^99mTc-F1A, metal not drawn] (H-HHE[AEEA]QWECPYGLCWIQ-OH; disulfide 8-13)", "values": [{"measurement": "binding to fibrin clots in the presence of human plasma compared with PBS alone", "setting": "fibrin clot", "result": "interfered; also recorded: dramatically reduced; also recorded: severely compromised"}, {"measurement": "organ accumulation (lung, liver, spleen)", "setting": "[1]", "result": "negligible liver or spleen biodistribution; also recorded: neither probe accumulating substantially in the lung, liver or spleen"}]}]}
